Experimental data: patent US10238612B2, “Transdermal administration of tamsulosin” (Corium International, Inc., priority 2009, dated 2019)

Test: Solubility of tamsulosin in DMSO and in mixtures of DMSO and water
Assay type: physicochemical
Text: For example, dimethylsulfoxide (DMSO) may potentially be used. The table below gives some data on the solubility of tamsulosin in DMSO and in mixtures of DMSO and water: […]

- Solubility of Tamsulosin (Water in DMSO 0 w/w %): 230 mg/g
- Solubility of Tamsulosin (w/w %) (Water in DMSO 0 w/w %): 23.0 w/w %
- Solubility of Tamsulosin (Water in DMSO 8.85 w/w %): 72.9 mg/g
- Solubility of Tamsulosin (w/w %) (Water in DMSO 8.85 w/w %): 7.29 w/w %
- Solubility of Tamsulosin (Water in DMSO 16.85 w/w %): 30.2 mg/g
- Solubility of Tamsulosin (w/w %) (Water in DMSO 16.85 w/w %): 3.02 w/w %
- Solubility of Tamsulosin (w/w %) (Water in DMSO 29.19 w/w %): 0.52 w/w %
Compound: CCOc1ccccc1OCCN[C@H](C)Cc1ccc(OC)c(S(N)(=O)=O)c1 [Tamsulosin, 5-[2-[[2-(2-ethoxyphenoxy)ethyl]amino]propyl]-2-methoxy-benzenesulfonamide]
